Data published in patent publication US5300501A, “Peptidyl derivatives” (Celltech Limited, priority 1990, dated 1994).

Tests used:
Type in all cases: biochemical
Collagenase = biological target: T1, Collagenase (Homo sapiens, UniProt P03956); test: Enzyme inhibition assay (peptide substrate Dnp-Pro-Leu-Gly-Leu-Trp-Ala-D-Arg-NH2, Trp fluorescence), collagenase; settings: pH 7.5, overnight, Ki (app) assumed to approximate true Ki
T1 sequence (P03956 100-469): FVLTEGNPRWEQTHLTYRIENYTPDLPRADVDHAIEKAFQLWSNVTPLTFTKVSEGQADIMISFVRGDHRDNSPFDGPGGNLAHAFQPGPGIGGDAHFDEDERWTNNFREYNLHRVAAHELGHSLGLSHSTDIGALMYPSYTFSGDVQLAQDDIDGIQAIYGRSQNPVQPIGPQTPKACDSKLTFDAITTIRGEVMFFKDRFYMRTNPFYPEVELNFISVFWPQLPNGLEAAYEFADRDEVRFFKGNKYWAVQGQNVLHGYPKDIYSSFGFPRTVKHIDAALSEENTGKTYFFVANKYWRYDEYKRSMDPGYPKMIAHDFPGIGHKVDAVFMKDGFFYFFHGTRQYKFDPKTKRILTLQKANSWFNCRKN
Source text: (§1) The enzymes cleave at the Gly-Leu bond which can be followed fluorimetrically by measuring the increase in Trp fluorescence emission associated with the removal of the quenching dinitrophenol (Dnp) group.
(§2) Ki values can be established using the equation for tight-being inhibition: [formula] where Vo is the initial rate of reaction in the absence of inhibitor, Vi is the initial rate in the presence of inhibitor, [E] is the total enzyme concentration and [I] the total inhibitor concentration in the reaction mixture.
(§3) For stromelysin and collagenase, Ki (app) was assumed to approximate to the true Ki as [S]<<Km for the substrate hydrolysis. For gelatinase the Ki was determined by performing the analyses at several substrate concentrations. A plot of Ki (app) vs. [S] then gave the true Ki as the value of the y-axis intercept.

Stromelysin-1 = Stromelysin-1 (Homo sapiens, UniProt P08254); test: Enzyme inhibition assay (peptide substrate Dnp-Pro-Leu-Gly-Leu-Trp-Ala-D-Arg-NH2, Trp fluorescence), stromelysin; settings: pH 7.5, overnight, Ki (app) assumed to approximate true Ki
Stromelysin-1, sequence (P08254 100-477, species assumed): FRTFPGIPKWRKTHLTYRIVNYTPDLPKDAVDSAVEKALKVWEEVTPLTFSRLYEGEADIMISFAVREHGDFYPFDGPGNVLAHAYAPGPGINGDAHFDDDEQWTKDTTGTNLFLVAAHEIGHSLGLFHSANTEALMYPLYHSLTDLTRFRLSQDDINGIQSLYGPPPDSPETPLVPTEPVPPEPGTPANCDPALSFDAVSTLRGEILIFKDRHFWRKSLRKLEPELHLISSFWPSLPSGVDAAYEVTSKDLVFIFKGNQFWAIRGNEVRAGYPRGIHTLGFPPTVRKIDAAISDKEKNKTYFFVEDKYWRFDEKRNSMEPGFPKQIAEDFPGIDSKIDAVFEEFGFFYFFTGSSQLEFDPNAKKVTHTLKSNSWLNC
Source text: as §1, §2, §3

Gelatinase-72KD = biological target: T2, Gelatinase-72KD (Homo sapiens, UniProt P08253); test: Enzyme inhibition assay (peptide substrate Dnp-Pro-Leu-Gly-Leu-Trp-Ala-D-Arg-NH2, Trp fluorescence), gelatinase; settings: pH 7.5, overnight; true Ki from plot of Ki (app) vs. [S], y-axis intercept
T2 sequence (P08253 110-660): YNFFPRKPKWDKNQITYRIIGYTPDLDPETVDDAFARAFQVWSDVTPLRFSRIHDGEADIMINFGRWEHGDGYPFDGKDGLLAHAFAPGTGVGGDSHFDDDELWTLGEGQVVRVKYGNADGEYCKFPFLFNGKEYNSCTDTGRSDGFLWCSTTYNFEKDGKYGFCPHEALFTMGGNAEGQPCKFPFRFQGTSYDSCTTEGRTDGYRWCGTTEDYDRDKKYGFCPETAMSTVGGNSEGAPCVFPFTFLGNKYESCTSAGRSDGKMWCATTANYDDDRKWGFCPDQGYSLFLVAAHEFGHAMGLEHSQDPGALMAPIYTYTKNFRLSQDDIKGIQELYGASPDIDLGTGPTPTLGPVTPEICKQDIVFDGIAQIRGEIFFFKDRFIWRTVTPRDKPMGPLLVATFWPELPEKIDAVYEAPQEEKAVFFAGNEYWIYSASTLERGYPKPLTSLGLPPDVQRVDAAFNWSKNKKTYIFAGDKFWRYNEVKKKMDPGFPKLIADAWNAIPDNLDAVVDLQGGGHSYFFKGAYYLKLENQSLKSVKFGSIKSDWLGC
Source text: as §1, §2, §3

[1] = value printed in μM in the cell

| Structure (SMILES) | Ki (Collagenase) [µM] | Ki (Stromelysin-1) [µM] | Ki (Gelatinase-72KD) [nM] | Ki (Collagenase; [1]) [µM] | Ki (Stromelysin-1; [1]) [µM] |
| --- | --- | --- | --- | --- | --- |
| NS(=O)(=O)c1ccc(CCNC(=O)[C@H](CC2CCCCC2)NC(=O)[C@H](CCCc2ccccc2)CC(=O)NO)cc1 [Example 6, [4-(N-Hydroxyamino)-2R-phenylpropylsuccinyl]-L-β-cyclohexyalanine-N-(2-(p-sulphonamidophenyl)ethyl) amide] | 0.15 | 0.00592 | 0.025 | – | – |
| O=C(C[C@@H](CCCc1ccccc1)C(=O)N[C@@H](CC1CCCCC1)C(=O)NCCCN1CCOCC1)NO [Example 12, [4-(N-Hydroxyamino)-2R-phenylpropylsuccinyl]-L-β-cyclohexylalanine-N-[3(4-morpholinyl)propyl] amide] | 0.21 | 0.0248 | 0.14 | – | – |
| O=C(O)C[C@@H](CCCc1ccccc1)C(=O)N[C@@H](CC1CCCCC1)C(=O)NCCc1ccccc1 [Example 15, [4-Hydroxy-2(R)-(3-phenylpropyl)succinnyl]-L-β-cyclohexylalanine-(N-2-phenylethyl) amide] | – | 0.842 | – | – | – |
| COC(=O)CCNC(=O)[C@H](CC1CCCCC1)NC(=O)[C@H](CCCc1ccccc1)CC(=O)O [Example 16, [4-Hydroxy-2(R)-(3-phenylpropyl)succinyl]-L-β-cyclohexylalanine-β-alanine methyl ester] | – | – | 6 | 57 | 1.47 |
